In patent US12070462B2, “SETBP1 inhibitors for the treatment of myeloid neoplasms and solid tumors” (The Henry M. Jackson Foundation for the Advancement of …, priority 2018, dated 2024):

Tests used:
[1] = target: T1, interaction between Setbp1(D/N) and XPO1 (Mus musculus, UniProt Q9Z180, D859N); assay: Co-immunoprecipitation / Western blotting of nuclear extracts of transfected HEK293T cells; format: cell-based; conditions: 1 μM, 10 μM and 25 μM, 12 hours, M2 immunoprecipitates
T1 construct: expressed in transfected cells; host or cells: HEK293T
Description: Western blotting analyses using indicated specific antibodies were performed on M2 immunoprecipitates prepared from nuclear extracts of HEK293T cells transiently transfected with pMYs-3×FLAG-Setbp1-IRES-GFP and subsequently treated with different concentrations of Compound (1AA) and control DMSO for 12 hours.
Immunoprecipitation. HEK293T cells were transfected with the indicated expression constructs using LipoD293 (SignaGen Laboratories, Rockville, MD) and nuclear extracts were isolated 48 hours after transfection using the Nuclear Complex Co-IP kit (Active Motif, Carlsbad, CA). Nuclear lysates were incubated with either 4 μg of anti-Flag M2 (Sigma Aldrich, St. Louis, MO) or anti-XPO1 (NB100-79802, Novus Biological, Centennial, CO) for 4 hours at 4° C. Subsequently, Dynabeads protein A (Invitrogen, Carlsbad, CA) were added to the nuclear lysate/antibody mixture and incubated for an additional 2 hours at 4° C. Immunoprecipitated proteins were eluted and analyzed by Western blotting analysis. For immunoprecipitation experiments using in vitro transcribed and translated proteins, the corresponding cDNAs were cloned into pCMV-TNT and the TnT T7 Coupled Wheat Germ Extract (Promega, Madison, WI) system was used according to the manufacturer's instructions.
Western Blotting Analysis. […]

[2] = system: Hoxa9, Hoxa10 and Myb mRNA levels; assay: Real-time RT-PCR of Setbp1 target genes in Setbp1-immortalized cells; format: cell-based, mouse; conditions: for Setbp1 target transcription levels of Hoxa9, Hoxa10 and Myb: 12 hours post-treatment, 1 nM
Description: (§1) Cell Culture Studies of Immortalized Myeloid Progenitors. Mouse myeloid progenitors immortalized by 3×FLAG-tagged Setbp1 and Setbp1(D/N) were generated and maintained as previously described using pMYs-3×FLAG-Setbp1-IRES-GFP and pMYs-3×FLAG-Setbp1(D/N)-IRES-GFP viruses respectively (Oakley et al., Blood 119(25): 6099-6108 (2012). Lentiviral transduction of these immortalized cells was carried out by spinoculation in which a mixture of lentivirus and target cells was spun at 2000×g for 90 minutes at 37° C. Transduced cells were selected by treatment with puromycin (2 μg/ml) for 24 hours at 24 hours after lentiviral transduction. Colony formation assays for transduced cells were performed at 48 hours after infection using 1×10^4 puromycin-resistant cells on IMDM methylcellulose medium supplemented with 20% horse serum, mouse Scf (100 ng/ml) and II-3 (10 ng/ml), and puromycin (2 μg/ml) with colony numbers counted after 7 days. For studying effects of KPT-185 (Selleck Chemicals, Houston, TX) in liquid culture, immortalized cells were treated at 2.5×10^5 cells/ml concentration. Detection of apoptosis was performed using PE Annexin V Apoptosis Detection Kit (BD Biosciences). KPT-185 was directly added to methylcellulose medium for assessing its effects on colony formation by immortalized cells.
(§2) Real-Time RT-PCR. For real-time RT-PCR, total RNA was extracted from cells using Nucleospin RNA (Clontech, Duren, Germany). Oligo-dT-primed cDNA samples were prepared using Superscript III (Invitrogen), and real-time PCR analysis was performed in triplicates using SYBR green detection reagents (Invitrogen) on a QuantStudio real time PCR system (Applied Biosystems, Foster City, CA). Relative changes in expression were calculated according to the ΔΔCt method. The cycling conditions were 50° C. for 2 minutes followed by 95° C. for 2 minutes, and then 40 cycles of 95° C. for 15 seconds and 60° C. for 1 minute. […]

[3] = system: Setbp1(D/N)-immortalized mouse myeloid progenitors; assay: Colony formation on methylcellulose by Setbp1(D/N)-immortalized myeloid progenitors; format: cell-based; conditions: for colony formation: Setbp1 (D/N)-immortalized cells, 1 nM
Description: (§3) In Vitro and In Vivo Testing of Compound (1AA). The activity of Compound 1AA against myeloid neoplasms was first determined in vitro by assessing its inhibitory effect on the colony formation by Setbp1/Setbp1(D/N)-immortalized mouse myeloid progenitors on IMDM methylcellulose medium with 20% horse serum plus mouse Scf (50 ng/ml) and Il-3 (10 ng/ml). The in vivo activity of Compound 1AA was evaluated by assessing its capability to reduce spleen size and to extend the survival of mice transplanted with Setbp1(D/N)-induced leukemia cells. For the generation of leukemic mice, 5×10^5 spleen cells from a primary recipient mouse with Setbp1(D/N)-induced leukemia were injected into the tail vein of each sublethally irradiated (550 rads from a ^137Cs source) B6-Ly5.2 female mouse. Starting from day 10 after transplantation, the recipient mice were treated with Compound (1AA) (33 mg/kg, dissolved in saline) or saline through five intra-peritoneal injections. The activity of Compound 1AA against solid tumors is determined by assessing its growth inhibitory effects on different human solid tumor cell lines in culture. Specifically, cellular ATP levels of liquid cultures of these cell lines are measured at 72 hours after treatment with serially diluted concentrations of Compound 1AA and compared to untreated cells.
(§4) Cell Culture Studies of Immortalized Myeloid Progenitors. […]

[4] = system: Setbp1-immortalized mouse myeloid progenitors; assay: Colony formation on methylcellulose by Setbp1-immortalized myeloid progenitors; format: cell-based; conditions: for colony formation: Setbp1-immortalized cells, 1 nM, 5 nM, 10 nM, and 100 nM
Description: as §3, §4

[5] = system: Setbp1-immortalized myeloid progenitor cells; assay: Apoptosis (Annexin V) and differentiation/cytotoxicity (cytospin) in Setbp1-immortalized cells; format: cell-based, mouse; conditions: for differentiation/cytotoxicity: 100 nM
Description: as §1

[6] = system: Hoxa9, Hoxa10 and Myb mRNA levels; assay: Real-time RT-PCR of Setbp1(D/N) target genes in Setbp1(D/N)-immortalized cells; format: cell-based, mouse; conditions: for Setbp1 (D/N) target transcription levels of Hoxa9, Hoxa10 and Myb: Setbp1 (D/N)-immortalized cells, 12 hours post-treatment, 1 nM
Description: as §1, §2

[7] = system: Setbp1(D/N)-induced leukemia; assay: Mice transplanted with Setbp1(D/N)-induced AML, treatment with Compound (1AA); format: in vivo, mouse; conditions: 33 mg/kg, five intra-peritoneal injections from day 10 after transplantation, vs vehicle
Description: as §3

[8] = system: Setbp1(D/N)-immortalized myeloid progenitors; assay: Apoptosis (Annexin V) and differentiation/cytotoxicity (cytospin) in Setbp1(D/N)-immortalized cells; format: cell-based, mouse; conditions: for differentiation/cytotoxicity: Setbp1 (D/N)-immortalized cells, 100 nM
Description: as §1

[9] = system: Setbp1(D/N)-induced leukemia; assay: Mice transplanted with Setbp1(D/N)-induced AML, treatment with KPT-330; format: in vivo, mouse
Description: Bone Marrow Transplantation and In Vivo Treatment with KPT-330. For generation of leukemic mice, 1×10^6 spleen cells from a primary recipient mouse with Setbp1(D/N)-induced leukemia were injected into the tail vein of each lethally irradiated (1100 rads from a ^137Cs source) B6-Ly5.2 female mouse along with 7.5×10^5 supporting bone marrow cells from un-irradiated B6-Ly5.2 mice. Starting from day 7 after transplantation, the recipient mice were treated with KPT-330 (20 mg/kg, dissolved in 2% DMSO/49% PEG300/ddH2O) or vehicle through oral gavage once every two days. KPT-330 was purchased from Selleck Chemicals.

T1 sequence (Q9Z180 whole entry D859N): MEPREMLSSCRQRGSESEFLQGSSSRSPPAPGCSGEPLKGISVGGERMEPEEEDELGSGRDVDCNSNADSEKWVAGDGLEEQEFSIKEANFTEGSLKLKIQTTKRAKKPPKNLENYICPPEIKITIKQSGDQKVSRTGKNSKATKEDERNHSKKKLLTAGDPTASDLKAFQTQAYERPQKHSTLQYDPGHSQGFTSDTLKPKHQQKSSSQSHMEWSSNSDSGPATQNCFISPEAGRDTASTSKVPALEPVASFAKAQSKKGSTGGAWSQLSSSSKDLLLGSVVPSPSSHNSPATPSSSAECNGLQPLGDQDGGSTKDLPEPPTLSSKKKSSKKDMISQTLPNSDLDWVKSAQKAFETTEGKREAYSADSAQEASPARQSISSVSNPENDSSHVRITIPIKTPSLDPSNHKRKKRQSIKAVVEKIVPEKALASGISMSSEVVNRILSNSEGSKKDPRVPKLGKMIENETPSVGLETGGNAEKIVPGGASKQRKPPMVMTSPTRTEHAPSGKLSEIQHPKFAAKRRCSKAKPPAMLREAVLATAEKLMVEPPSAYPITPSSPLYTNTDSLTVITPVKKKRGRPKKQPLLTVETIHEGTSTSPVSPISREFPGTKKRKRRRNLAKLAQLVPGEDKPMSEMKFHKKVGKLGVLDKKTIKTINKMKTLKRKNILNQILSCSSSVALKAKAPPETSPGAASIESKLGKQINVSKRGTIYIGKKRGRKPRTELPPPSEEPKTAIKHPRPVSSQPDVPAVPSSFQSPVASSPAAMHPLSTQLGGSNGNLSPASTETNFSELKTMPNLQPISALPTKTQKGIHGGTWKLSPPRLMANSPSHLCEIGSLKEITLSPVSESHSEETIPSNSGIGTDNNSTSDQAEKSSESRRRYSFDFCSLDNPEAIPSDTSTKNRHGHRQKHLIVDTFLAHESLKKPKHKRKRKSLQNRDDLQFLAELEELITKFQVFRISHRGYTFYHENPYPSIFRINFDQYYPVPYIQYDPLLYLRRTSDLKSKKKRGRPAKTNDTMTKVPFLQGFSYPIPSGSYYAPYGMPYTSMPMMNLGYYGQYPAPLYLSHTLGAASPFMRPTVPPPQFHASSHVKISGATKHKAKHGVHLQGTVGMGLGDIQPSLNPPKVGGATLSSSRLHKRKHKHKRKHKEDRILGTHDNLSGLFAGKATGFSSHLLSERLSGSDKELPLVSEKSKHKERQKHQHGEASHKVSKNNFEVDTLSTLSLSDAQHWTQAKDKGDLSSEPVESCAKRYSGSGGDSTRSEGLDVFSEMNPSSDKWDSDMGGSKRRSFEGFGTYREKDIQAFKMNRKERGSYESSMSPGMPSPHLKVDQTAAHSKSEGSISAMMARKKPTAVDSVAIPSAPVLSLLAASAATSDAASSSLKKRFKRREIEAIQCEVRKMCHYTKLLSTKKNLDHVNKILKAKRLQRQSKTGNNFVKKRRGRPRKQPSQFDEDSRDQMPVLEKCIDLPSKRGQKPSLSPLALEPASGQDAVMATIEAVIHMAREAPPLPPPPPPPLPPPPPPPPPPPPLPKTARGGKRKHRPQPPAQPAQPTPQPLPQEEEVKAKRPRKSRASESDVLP

## Cc1c2cc[n+](CCN3CCCCC3)cc2c(C)c2c1[nH]c1ccc(O)cc12.[Br-] [Compound (1AA)]
[1]
  interaction between Setbp1(D/N) and XPO1: disrupts the interaction
[2]; 10 nM, 100 nM and 500 nM
  Setbp1 target transcription levels of Hoxa9, Hoxa10 and Myb: reduces Setbp1 target transcription levels
[3]; 5 nM, 10 nM, and 100 nM
  colony formation: inhibits colony formation
[4]
  colony formation: inhibits colony formation
[5]
  differentiation/cytotoxicity: induces differentiation/cytotoxicity
[6]; 10 nM, 100 nM and 500 nM
  Setbp1 (D/N) target transcription levels of Hoxa9, Hoxa10 and Myb: reduces Setbp1 (D/N) target transcription levels
[7]
  spleen size (spleen weights when moribund): reduced the spleen size
[7]; p=0.0034, Log-rank test
  survival of leukemic mice: significantly extended the survival
[8]
  differentiation/cytotoxicity: induces differentiation/cytotoxicity

## Nc1ccc(Cn2ccc3c4c(N)nc(N)nc4ccc32)cc1 [Compound (2AA)]
[2]; 50 nM, 100 nM and 300 nM
  Setbp1 target transcription levels of Hoxa9, Hoxa10 and Myb: reduces Setbp1 target transcription levels
[3]; 10 nM, 50 nM, 100 nM, 300 nM and 500 nM
  colony formation: inhibits colony formation
[4]
  colony formation: inhibits colony formation
[5]
  differentiation/cytotoxicity: induces differentiation/cytotoxicity
[6]; 50 nM, 100 nM and 300 nM
  Setbp1 (D/N) target transcription levels of Hoxa9, Hoxa10 and Myb: reduces Setbp1 (D/N) target transcription levels
[8]
  differentiation/cytotoxicity: induces differentiation/cytotoxicity

## COc1cc(-c2ncn(/C=C\C(=O)OC(C)C)n2)cc(C(F)(F)F)c1 [KPT-185, reference compound]
[2]; 300 nM, 2.5 hours after treatment, vs DMSO
  Hoxa9/Hoxa10/Myb mRNA levels: significantly down-regulated
[3]; Setbp1(D/N)-immortalized myeloid progenitors, indicated concentrations, vs DMSO
  relative colony-forming potential: significantly reduces colony-forming potential
[4]; Setbp1-immortalized myeloid progenitors, indicated concentrations, vs DMSO
  relative colony-forming potential: significantly reduces colony-forming potential
[5]; 48 hours after treatment, vs DMSO
  apoptosis (Annexin V staining): induces apoptosis
[5]; 72 hours after treatment
  differentiation: number of mature neutrophils (cytospin): significantly increase
[6]; Setbp1(D/N)-immortalized cells, 300 nM, 2.5 hours after treatment, vs DMSO
  Hoxa9/Hoxa10/Myb mRNA levels: significantly down-regulated
[8]; Setbp1(D/N)-immortalized cells, 48 hours after treatment, vs DMSO
  apoptosis (Annexin V staining): induces apoptosis
[8]; Setbp1(D/N)-immortalized cells, 72 hours after treatment
  differentiation (cytospin): induces apoptosis and differentiation

## O=C(/C=C\n1cnc(-c2cc(C(F)(F)F)cc(C(F)(F)F)c2)n1)NNc1cnccn1 [KPT-330]
[9]; 20 mg/kg oral gavage every 2 days from day 7, vehicle mice moribund in 17 days
  extension of survival time: ≤ 50%
[9]; 20 mg/kg oral gavage every 2 days from day 7 after transplantation, vs vehicle, p=0.012, Log-rank test
  survival of transplanted mice: prolonged the survival
